Assay [1] addresses T1, HiBit-BRG1 fusion protein (Homo sapiens, UniProt P51532).
T1 construct: expressed in transfected cells
Put plainly: HiBiT-BRG1 cell-based degradation assay (Nano-Glo HiBiT Lytic Detection, 24 h). The note with it: HeLa cell line expressing HiBit-BRG1 and LgBit; for Dmax: read-out: BRG1 HiBit Degradation Maximum (%); for DC50: read-out: BRMG1 HiBit Degradation IC50. The essentials: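 Luminescence from reconstituted NanoBiT luciferase after lytic detection served as read-out of remaining HiBit-BRG1 in stable HeLa cells, which also express LgBit. Cells were seeded at 5000 per well and incubated with compound for 24 h. DMSO and a 2 μM known degrader defined the control range.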
(In general: With HiBiT, luminescence reflects the tagged protein that the partner subunit can reach.)

Assay [2] concerns the target T2, HiBit-BRM fusion protein (Homo sapiens, UniProt P51531).
T2 construct: expressed in transfected cells
Put plainly: HiBiT-BRM cell-based degradation assay (Nano-Glo HiBiT Lytic Detection, 24 h). The note with it: HeLa cell line expressing HiBiT-BRM; for DC50: read-out: BRM HiBit Degradation IC50. Summed up:
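Percent BRM loss was derived from HiBiT luminescence relative to DMSO-treated cells and cells given 2 μM of a known BRM/BRG1 degrader. Treatment lasted 24 h in HiBiT-BRM HeLa cells, with a top final concentration of 30 μM.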

Molecules are shown by their SMILES.

T2 sequence (P51531 whole entry, the tested form may be a part): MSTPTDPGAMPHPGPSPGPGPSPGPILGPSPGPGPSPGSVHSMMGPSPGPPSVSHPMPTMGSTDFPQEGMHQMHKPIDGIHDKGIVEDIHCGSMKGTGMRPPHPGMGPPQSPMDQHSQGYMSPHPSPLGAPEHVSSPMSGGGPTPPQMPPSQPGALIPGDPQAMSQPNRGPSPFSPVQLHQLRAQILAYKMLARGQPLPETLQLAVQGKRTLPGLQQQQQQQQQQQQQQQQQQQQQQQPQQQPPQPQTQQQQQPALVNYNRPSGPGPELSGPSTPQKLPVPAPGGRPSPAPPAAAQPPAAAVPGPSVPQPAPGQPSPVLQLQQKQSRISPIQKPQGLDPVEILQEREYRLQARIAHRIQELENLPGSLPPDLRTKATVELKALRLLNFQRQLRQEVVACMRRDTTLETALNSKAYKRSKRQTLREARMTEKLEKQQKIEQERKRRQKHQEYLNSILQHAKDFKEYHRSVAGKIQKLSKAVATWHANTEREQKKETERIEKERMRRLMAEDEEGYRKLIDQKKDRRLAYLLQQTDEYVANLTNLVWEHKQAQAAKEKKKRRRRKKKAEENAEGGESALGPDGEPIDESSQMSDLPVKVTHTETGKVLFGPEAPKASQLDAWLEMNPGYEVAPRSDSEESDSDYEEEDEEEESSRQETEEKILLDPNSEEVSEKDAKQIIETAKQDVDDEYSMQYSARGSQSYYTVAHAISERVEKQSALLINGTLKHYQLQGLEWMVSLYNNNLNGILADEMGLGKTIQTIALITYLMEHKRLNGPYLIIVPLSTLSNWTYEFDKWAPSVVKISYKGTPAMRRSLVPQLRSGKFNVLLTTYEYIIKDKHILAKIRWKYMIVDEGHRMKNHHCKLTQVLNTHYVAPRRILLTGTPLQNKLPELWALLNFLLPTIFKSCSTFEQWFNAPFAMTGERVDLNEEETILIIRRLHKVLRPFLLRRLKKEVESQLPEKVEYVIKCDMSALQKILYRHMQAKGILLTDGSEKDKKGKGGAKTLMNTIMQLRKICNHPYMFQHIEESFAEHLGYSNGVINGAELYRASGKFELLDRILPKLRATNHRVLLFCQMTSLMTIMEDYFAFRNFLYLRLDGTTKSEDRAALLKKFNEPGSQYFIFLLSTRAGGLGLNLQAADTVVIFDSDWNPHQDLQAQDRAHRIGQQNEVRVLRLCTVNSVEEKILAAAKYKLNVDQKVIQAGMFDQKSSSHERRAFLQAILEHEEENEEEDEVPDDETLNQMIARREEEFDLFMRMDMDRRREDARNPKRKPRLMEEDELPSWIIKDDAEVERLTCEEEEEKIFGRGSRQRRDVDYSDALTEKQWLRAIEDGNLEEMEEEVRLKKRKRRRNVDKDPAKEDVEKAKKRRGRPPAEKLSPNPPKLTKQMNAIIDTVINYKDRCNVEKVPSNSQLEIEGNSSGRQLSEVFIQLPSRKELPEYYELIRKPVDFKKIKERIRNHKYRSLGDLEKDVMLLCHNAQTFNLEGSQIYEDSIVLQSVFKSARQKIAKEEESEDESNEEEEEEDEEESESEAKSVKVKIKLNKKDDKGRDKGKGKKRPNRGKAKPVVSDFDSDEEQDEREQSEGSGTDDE
T1 sequence (P51532 whole entry, the tested form may be a part): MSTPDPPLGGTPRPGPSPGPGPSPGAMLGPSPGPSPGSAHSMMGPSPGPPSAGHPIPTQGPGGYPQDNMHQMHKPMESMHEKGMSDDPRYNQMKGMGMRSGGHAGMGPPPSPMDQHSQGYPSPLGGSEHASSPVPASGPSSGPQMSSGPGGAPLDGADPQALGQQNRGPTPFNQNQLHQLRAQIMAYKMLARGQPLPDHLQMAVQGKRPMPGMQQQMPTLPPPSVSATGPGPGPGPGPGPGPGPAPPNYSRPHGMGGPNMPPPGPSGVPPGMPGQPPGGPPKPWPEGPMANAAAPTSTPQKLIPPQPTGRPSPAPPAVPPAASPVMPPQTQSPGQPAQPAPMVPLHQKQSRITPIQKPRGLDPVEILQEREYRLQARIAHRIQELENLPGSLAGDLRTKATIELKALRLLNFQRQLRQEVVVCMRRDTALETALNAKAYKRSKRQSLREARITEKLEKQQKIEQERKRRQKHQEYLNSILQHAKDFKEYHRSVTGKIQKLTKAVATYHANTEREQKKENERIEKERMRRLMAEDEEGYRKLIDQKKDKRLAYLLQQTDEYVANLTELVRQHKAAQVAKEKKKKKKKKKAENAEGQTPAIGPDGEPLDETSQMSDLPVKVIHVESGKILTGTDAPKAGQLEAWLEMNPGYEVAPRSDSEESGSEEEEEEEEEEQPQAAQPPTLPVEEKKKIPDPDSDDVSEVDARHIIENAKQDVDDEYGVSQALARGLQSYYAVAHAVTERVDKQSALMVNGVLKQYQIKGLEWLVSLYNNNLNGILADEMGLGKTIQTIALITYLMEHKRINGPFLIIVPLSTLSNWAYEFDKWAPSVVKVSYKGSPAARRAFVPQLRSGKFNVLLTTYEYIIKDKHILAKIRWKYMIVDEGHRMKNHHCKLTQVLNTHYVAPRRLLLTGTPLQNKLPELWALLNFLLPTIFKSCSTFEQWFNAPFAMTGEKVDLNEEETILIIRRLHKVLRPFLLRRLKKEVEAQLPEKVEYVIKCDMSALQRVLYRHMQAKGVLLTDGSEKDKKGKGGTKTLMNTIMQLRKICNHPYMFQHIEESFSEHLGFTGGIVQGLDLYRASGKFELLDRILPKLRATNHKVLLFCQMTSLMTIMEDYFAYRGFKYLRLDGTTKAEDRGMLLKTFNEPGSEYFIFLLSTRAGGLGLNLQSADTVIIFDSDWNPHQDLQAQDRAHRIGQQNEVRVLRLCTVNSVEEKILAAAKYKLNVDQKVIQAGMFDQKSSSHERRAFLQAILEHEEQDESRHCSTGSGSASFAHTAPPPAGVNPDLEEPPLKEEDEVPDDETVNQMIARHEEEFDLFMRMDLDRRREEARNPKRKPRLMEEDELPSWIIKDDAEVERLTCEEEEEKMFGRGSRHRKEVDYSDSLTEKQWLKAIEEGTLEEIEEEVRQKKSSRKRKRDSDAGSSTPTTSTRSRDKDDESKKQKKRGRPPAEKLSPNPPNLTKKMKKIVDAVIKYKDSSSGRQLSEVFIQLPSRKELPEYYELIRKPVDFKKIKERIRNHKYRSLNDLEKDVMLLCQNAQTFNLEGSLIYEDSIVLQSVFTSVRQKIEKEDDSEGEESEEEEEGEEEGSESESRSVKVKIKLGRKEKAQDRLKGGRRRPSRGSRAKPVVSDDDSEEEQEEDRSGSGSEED

As to `Cc1ncsc1-c1ccc(CNC(=O)[C@@H]2C[C@@H](O)CN2C(=O)[C@@H](NC(=O)[C@H]2CC[C@H](c3cnc(N4CCC(c5cc6cc(-c7ccccc7O)nnc6[nH]5)CC4)nc3)CC2)C(C)(C)C)cc1` (racemic) [Compound 93, (2S,4R)-4-hydroxy-1-((S)-2-((1r,4S)-4-(2-(4-(3-(2-hydroxyphenyl)-7H-pyrrolo[2,3-c]pyridazin-6-yl)piperidin-1-yl)pyrimidin-5-yl)cyclohexane-1-carboxamido)-3,3-dimethylbutanoyl)-N-(4-(4-methylthiazol-5-yl)benzyl)pyrrolidine-2-carboxamide], in assay [1], the Dmax was above 75% and the DC50 is above 100 nM. For the same molecule, in assay [2], the “BRM HiBit Degradation Maximum (%)” value is “A (“A” indicates maximum degradation ≥ 75%)” and the DC50 is above 10 nM.
As for `Cc1ncsc1-c1ccc([C@H](C)NC(=O)[C@@H]2C[C@@H](O)CN2C(=O)[C@@H](c2cc(C3CCN(Cc4cc5cc(-c6ccccc6O)nnc5[nH]4)CC3)no2)C(C)C)cc1` (racemic) [Compound 118, (2S,4R)-4-hydroxy-1-((R)-2-(3-(1-((3-(2-hydroxyphenyl)-7H-pyrrolo[2,3-c]pyridazin-6-yl)methyl)piperidin-4-yl)isoxazol-5-yl)-3-methylbutanoyl)-N-((S)-1-(4-(4-methylthiazol-5-yl)phenyl)ethyl)pyrrolidine-2-carboxamide], the Dmax in assay [1] is below 50%. In addition, in assay [2], the “BRM HiBit Degradation Maximum (%)” value is given as “A (“A” indicates maximum degradation ≥ 75%)” and the DC50 was above 10 nM.
In the case of `Cc1ncsc1-c1ccc(CNC(=O)[C@@H]2C[C@@H](O)CN2C(=O)[C@@H](NC(=O)CCCCCCCCCCCCC(=O)N2CC(c3cc4cc(-c5ccccc5O)nnc4[nH]3)C2)C(C)(C)C)cc1` [Compound 17, (2S,4R)-4-hydroxy-1-((S)-2-(14-(3-(3-(2-hydroxyphenyl)-7H-pyrrolo[2,3-c]pyridazin-6-yl)azetidin-1-yl)-14-oxotetradecanamido)-3,3-dimethylbutanoyl)-N-(4-(4-methylthiazol-5-yl)benzyl)pyrrolidine-2-carboxamide], in assay [1], the Dmax is below 50%. Also, in assay [2], the “BRM HiBit Degradation Maximum (%)” value is recorded as “C (“C” indicates maximum degradation < 50%)”.
On the same counts, the results for `Cc1ncsc1-c1ccc(CNC(=O)[C@@H]2C[C@@H](O)CN2C(=O)[C@@H](NC(=O)CCCCN2CC(c3cc4cc(-c5ccccc5O)nnc4[nH]3)C2)C(C)(C)C)cc1` (racemic) [Compound 297, (2S,4R)-4-hydroxy-1-((S)-2-(5-(3-(3-(2-hydroxyphenyl)-7H-pyrrolo[2,3-c]pyridazin-6-yl)azetidin-1-yl)pentanamido)-3,3-dimethylbutanoyl)-N-(4-(4-methylthiazol-5-yl)benzyl)pyrrolidine-2-carboxamide] are below 50% and “C (“C” indicates maximum degradation < 50%)”.
As for `Cc1ncsc1-c1ccc(CNC(=O)[C@@H]2C[C@@H](O)CN2C(=O)[C@@H](NC(=O)CCNC23CC(c4cc5cc(-c6ccccc6O)nnc5[nH]4)(C2)C3)C(C)(C)C)cc1` (racemic) [Compound 296], in assay [1], the Dmax is above 50% and the DC50 was above 1000 nM. Besides, in assay [2], the “BRM HiBit Degradation Maximum (%)” value was “A (“A” indicates maximum degradation ≥ 75%)” and the DC50 is above 1000 nM.
For the molecule `Cc1ncsc1-c1ccc([C@H](C)NC(=O)[C@@H]2C[C@@H](O)CN2C(=O)[C@@H](c2cc([C@H]3CC[C@H](c4cnc(N5CCC(c6c[nH]c7nnc(-c8ccccc8O)cc67)CC5)nc4)CC3)no2)C(C)C)cc1` (racemic) [Compound 67, (2S,4R)-4-hydroxy-N-[(1S)-1-[4-(4-methyl-1,3-thiazol-5-yl)phenyl]ethyl]-1-[(2R)-3-methyl-2-{3-[(1r,4r)-4-(2-{4-[3-(2-hydroxyphenyl)-7H-pyrrolo[2,3-c]pyridazin-5-yl]piperidin-1-yl}pyrimidin-5-yl)cyclohexyl]-1,2-oxazol-5-yl}butanoyl]pyrrolidine-2-carboxamide], in assay [1], the Dmax was above 75% and the DC50 is above 10 nM. Further, in assay [2], the “BRM HiBit Degradation Maximum (%)” value was “A (“A” indicates maximum degradation ≥ 75%)” and the DC50 was below 10 nM.
As to `Cc1ncsc1-c1ccc([C@H](C)NC(=O)[C@@H]2C[C@@H](O)CN2C(=O)[C@@H](c2cc(OCCN3CCC(c4c[nH]c5nnc(-c6ccccc6O)cc45)CC3)no2)C(C)C)cc1` (racemic) [Compound 282, (2S,4R)-4-hydroxy-1-((R)-2-(3-(2-(4-(3-(2-hydroxyphenyl)-7H-pyrrolo[2,3-c]pyridazin-5-yl)piperidin-1-yl)ethoxy)isoxazol-5-yl)-3-methylbutanoyl)-N-((S)-1-(4-(4-methylthiazol-5-yl)phenyl)ethyl)pyrrolidine-2-carboxamide], the Dmax in assay [1] is below 50%. Also, in assay [2], the “BRM HiBit Degradation Maximum (%)” value was “A (“A” indicates maximum degradation ≥ 75%)” and the DC50 was above 10 nM.
On to `Cc1ncsc1-c1ccc(CNC(=O)[C@@H]2C[C@@H](O)CN2C(=O)[C@@H](NC(=O)CCCCCCC(=O)N2CC(c3cc4cc(-c5ccccc5O)nnc4[nH]3)C2)C(C)(C)C)cc1` [Compound 3, (2S,4R)-4-hydroxy-1-((S)-2-(8-(3-(3-(2-hydroxyphenyl)-7H-pyrrolo[2,3-c]pyridazin-6-yl)azetidin-1-yl)-8-oxooctanamido)-3,3-dimethylbutanoyl)-N-(4-(4-methylthiazol-5-yl)benzyl)pyrrolidine-2-carboxamide], for which the Dmax in assay [1] was below 50%. Besides, in assay [2], the “BRM HiBit Degradation Maximum (%)” value is recorded as “B (“B” indicates maximum degradation ≥ 50%)” and the DC50 is above 1000 nM.
With `Cc1ncsc1-c1ccc([C@H](C)NC(=O)[C@@H]2C[C@@H](O)CN2C(=O)[C@@H](c2cc(OCCN3CCC34CC(c3c[nH]c5nnc(-c6ccccc6O)cc35)C4)no2)C(C)C)cc1` (mixture of isomers) [Compound 151, (2S,4R)-4-hydroxy-1-((R)-2-(3-(2-(6-(3-(2-hydroxyphenyl)-7H-pyrrolo[2,3-c]pyridazin-5-yl)-1-azaspiro[3.3]heptan-1-yl)ethoxy)isoxazol-5-yl)-3-methylbutanoyl)-N-((S)-1-(4-(4-methylthiazol-5-yl)phenyl)ethyl)pyrrolidine-2-carboxamide], the Dmax in assay [1] was below 50%. In assay [2], the “BRM HiBit Degradation Maximum (%)” value is listed as “A (“A” indicates maximum degradation ≥ 75%)” and the DC50 is above 100 nM.
On the same counts, the results for `Cc1ncsc1-c1ccc([C@H](C)NC(=O)[C@@H]2C[C@@H](O)CN2C(=O)[C@@H](c2cc(N3C[C@@H]4C[C@H]3CN4C(=O)[C@H]3C[C@]4(Cc5cc(-c6ccccc6O)nnc5N4)C3)no2)C(C)C)cc1` (racemic) [Compound 78, (2S,4R)-4-hydroxy-1-((R)-2-(3-((1S,4S)-5-((1R,3r)-3′-(2-hydroxyphenyl)-5′,7′-dihydrospiro[cyclobutane-1,6′-pyrrolo[2,3-c]pyridazine]-3-carbonyl)-2,5-diazabicyclo[2.2.1]heptan-2-yl)isoxazol-5-yl)-3-methylbutanoyl)-N-((S)-1-(4-(4-methylthiazol-5-yl)phenyl)ethyl)pyrrolidine-2-carboxamide] are below 50%, “A (“A” indicates maximum degradation ≥ 75%)” and above 100 nM.
On the same counts, the results for `Cc1ncsc1-c1ccc([C@H](C)NC(=O)[C@@H]2C[C@@H](O)CN2C(=O)[C@@H](c2cc(OCCN(C)C(=O)c3cc4cc(-c5ccccc5O)nnc4[nH]3)no2)C(C)C)cc1` (racemic) [Compound 242, N-(2-((5-((R)-1-((2S,4R)-4-hydroxy-2-(((S)-1-(4-(4-methylthiazol-5-yl)phenyl)ethyl)carbamoyl)pyrrolidin-1-yl)-3-methyl-1-oxobutan-2-yl)isoxazol-3-yl)oxy)ethyl)-3-(2-hydroxyphenyl)-N-methyl-7H-pyrrolo[2,3-c]pyridazine-6-carboxamide] are below 50%, “B (“B” indicates maximum degradation ≥ 50%)” and above 100 nM.
Turning to `Cc1ncsc1-c1ccc([C@H](C)NC(=O)[C@@H]2C[C@@H](O)CN2C(=O)[C@@H](c2cc(OCCN3CC(c4cc5cc(-c6cc(F)ccc6O)nnc5[nH]4)C3)no2)C(C)C)cc1` (racemic) [Compound 288, (2S,4R)-1-((R)-2-(3-(2-(3-(3-(5-fluoro-2-hydroxyphenyl)-7H-pyrrolo[2,3-c]pyridazin-6-yl)azetidin-1-yl)ethoxy)isoxazol-5-yl)-3-methylbutanoyl)-4-hydroxy-N-((S)-1-(4-(4-methylthiazol-5-yl)phenyl)ethyl)pyrrolidine-2-carboxamide], the Dmax in assay [1] was below 50%. In assay [2], the “BRM HiBit Degradation Maximum (%)” value was “A (“A” indicates maximum degradation ≥ 75%)” and the DC50 was above 100 nM.
Regarding `Cc1ncsc1-c1ccc(CNC(=O)[C@@H]2C[C@@H](O)CN2C(=O)[C@@H](NC(=O)CCC(=O)NC23CC(c4cc5cc(-c6ccccc6O)nnc5[nH]4)(C2)C3)C(C)(C)C)cc1` (racemic) [Compound 298, N1-((S)-1-((2S,4R)-4-hydroxy-2-((4-(4-methylthiazol-5-yl)benzyl)carbamoyl)pyrrolidin-1-yl)-3,3-dimethyl-1-oxobutan-2-yl)-N4-(3-(3-(2-hydroxyphenyl)-7H-pyrrolo[2,3-c]pyridazin-6-yl)bicyclo[1.1.1]pentan-1-yl)succinamide], in assay [1], the Dmax is below 50%. The “BRM HiBit Degradation Maximum (%)” value in assay [2] is listed as “C (“C” indicates maximum degradation < 50%)”.

Source of the values: patent US20240024488A1, “COMPOUNDS AND USES THEREOF” (Foghorn Therapeutics Inc., priority 2020, published 2024).
